pIC50: −log10 of the molar value. Where two headings read alike, the source gives them in different places.
What was measured:
[1] = target: T1, NK1-receptor (substance P-receptor) (Homo sapiens, UniProt P25103); test: NK1-receptor (substance P-receptor) affinity: displacement of 125I-labelled substance P on IM-9 cells; assay type: binding
T1 construct: cloned NK1 -receptors on human lymphoblastoma cells (IM-9); endogenous in cells; host or cells: IM-9 human lymphoblastoma cells
Protocol: (§1) The receptor affinity at the NK1 -receptor (substance P-receptor) was determined with cloned NK1 -receptors on human lymphoblastoma cells (IM-9), whereby the displacement of ^125 I-labelled substance P is measured. The NK2 -binding test is carried out on transfixed A20 cells which represent the human NK2 receptor. The displacement of ^125 I-BN-neusolinine A is determined.

human NK2 receptor = target: T2, human NK2 receptor (Homo sapiens, UniProt P21452); test: NK2-binding test: displacement of 125I-labelled ligand on A20 cells which represent the human NK2 receptor; details: transfixed A20 cells (human NK2 receptor); displacement of 125I-BN-neusolinine A
T2 construct: expressed in transfected cells; host or cells: A20 cells
T2 sequence (P21452 1-398): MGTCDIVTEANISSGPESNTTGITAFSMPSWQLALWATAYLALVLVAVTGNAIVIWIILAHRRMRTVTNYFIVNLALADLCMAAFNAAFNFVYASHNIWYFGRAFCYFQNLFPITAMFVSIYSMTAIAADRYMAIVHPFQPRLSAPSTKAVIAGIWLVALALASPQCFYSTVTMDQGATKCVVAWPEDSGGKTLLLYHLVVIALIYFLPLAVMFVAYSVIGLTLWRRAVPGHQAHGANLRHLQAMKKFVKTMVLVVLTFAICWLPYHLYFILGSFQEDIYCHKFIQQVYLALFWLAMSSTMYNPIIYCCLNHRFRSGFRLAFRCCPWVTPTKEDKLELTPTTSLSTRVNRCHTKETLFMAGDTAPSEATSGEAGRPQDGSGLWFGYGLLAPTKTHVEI
Protocol: as §1

[2] = cloned NK1-receptors on human lymphoblastoma cells (IM-9), displacement of 125I-labelled substance P, read-out: NK1 IC50

T1 sequence (P25103 whole entry): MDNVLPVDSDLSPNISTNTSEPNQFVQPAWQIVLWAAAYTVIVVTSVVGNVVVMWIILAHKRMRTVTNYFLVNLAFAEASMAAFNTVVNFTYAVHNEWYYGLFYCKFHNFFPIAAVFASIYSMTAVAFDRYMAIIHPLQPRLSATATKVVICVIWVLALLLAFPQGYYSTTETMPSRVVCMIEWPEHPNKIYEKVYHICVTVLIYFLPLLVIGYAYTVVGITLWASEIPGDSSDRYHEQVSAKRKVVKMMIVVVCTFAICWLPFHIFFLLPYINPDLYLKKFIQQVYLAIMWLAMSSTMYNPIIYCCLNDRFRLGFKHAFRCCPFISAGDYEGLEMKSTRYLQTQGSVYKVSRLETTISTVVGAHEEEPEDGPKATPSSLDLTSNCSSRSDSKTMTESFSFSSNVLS

pIC50 [1, 2]	pIC50 (human NK2 receptor)	SMILES	pIC50 [1]
8.51	7.68	COc1ccccc1N1CCN(C(=O)[C@H](Cc2ccc3ccccc3c2)NC(=O)[C@@H]2C[C@@H](O)CN2C(=O)C2C(=O)C3(C)CCC2C3(C)C)CC1 (single isomer, unassigned) [Compound 1]	–
8.44	7.68	Cc1ccccc1CN(C)C(=O)[C@H](Cc1c[nH]c2ccccc12)NC(=O)[C@@H]1C[C@@H](O)CN1C(=O)C1C(=O)C2(C)CCC1C2(C)C (single isomer, unassigned) [Compound 2]	–
8.52	7.19	Cc1ccccc1N1CCN(C(=O)[C@H](Cc2ccc3ccccc3c2)NC(=O)[C@@H]2C[C@@H](O)CN2C(=O)C2C(=O)C3(C)CCC2C3(C)C)CC1 (stereo partly drawn) [Compound 3]	–
8.30	6.96	CC(C)c1ccccc1N1CCN(C(=O)[C@H](Cc2ccc3ccccc3c2)NC(=O)[C@@H]2C[C@@H](O)CN2C(=O)C2C(=O)C3(C)CCC2C3(C)C)CC1 (stereo partly drawn) [Compound 4]	–
7.96	6.93	COc1ccc(N2CCN(C(=O)[C@H](Cc3ccc4ccccc4c3)NC(=O)[C@@H]3C[C@@H](O)CN3C(=O)C3C(=O)C4(C)CCC3C4(C)C)CC2)c(C)c1 (stereo partly drawn) [Compound 5]	–
7.35	–	CC12CCC(C(C(=O)N3C[C@H](O)C[C@H]3C(=O)N[C@@H](Cc3ccc4ccccc4c3)C(=O)N3CCN(c4ccccn4)CC3)C1=O)C2(C)C (stereo partly drawn) [Compound 6]	–
9.35	7.36	CCOC(=O)c1ccccc1N1CCN(C(=O)[C@H](Cc2ccc3ccccc3c2)NC(=O)[C@@H]2C[C@@H](O)CN2C(=O)C2C(=O)C3(C)CCC2C3(C)C)CC1 (stereo partly drawn) [Compound 7]	–
8.52	7.74	CC12CCC(C(C(=O)N3C[C@H](O)C[C@H]3C(=O)N[C@@H](Cc3ccc4ccccc4c3)C(=O)N3CCN(c4ccccc4Cl)CC3)C1=O)C2(C)C (stereo partly drawn) [Compound 8]	–
7.77	–	CC12CCC(C(C(=O)N3C[C@H](O)C[C@H]3C(=O)N[C@@H](Cc3ccc4ccccc4c3)C(=O)N3CCN(C4CCCCC4)CC3)C1=O)C2(C)C (stereo partly drawn) [Compound 9]	–
6.70	–	CC12CCC(C(C(=O)N3C[C@H](O)C[C@H]3C(=O)N[C@@H](Cc3ccc4ccccc4c3)C(=O)N3CCN(C(c4ccc(F)cc4)c4ccc(F)cc4)CC3)C1=O)C2(C)C (stereo partly drawn) [Compound 10]	–
8.49	–	CC12CCC(C(C(=O)N3C[C@H](O)C[C@H]3C(=O)N[C@@H](Cc3ccc4ccccc4c3)C(=O)N3CCN(c4ccccc4[N+](=O)[O-])CC3)C1=O)C2(C)C (stereo partly drawn) [Compound 11]	–
8.25	–	CC12CCC(C(C(=O)N3C[C@H](O)C[C@H]3C(=O)N[C@@H](Cc3ccc4ccccc4c3)C(=O)N3CCN(c4ccccc4O)CC3)C1=O)C2(C)C (stereo partly drawn) [Compound 12]	–
6.98	6.11	CC12CCC(C(C(=O)N3C[C@H](O)C[C@H]3C(=O)N[C@@H](Cc3ccc4ccccc4c3)C(=O)N3CCN(c4ccc5ccccc5c4)CC3)C1=O)C2(C)C (stereo partly drawn) [Compound 13]	–
8.51	6.62	CSc1ccccc1N1CCN(C(=O)[C@H](Cc2ccc3ccccc3c2)NC(=O)[C@@H]2C[C@@H](O)CN2C(=O)C2C(=O)C3(C)CCC2C3(C)C)CC1 (stereo partly drawn) [Compound 14]	–
8.49	7.42	CCOc1ccccc1N1CCN(C(=O)[C@H](Cc2ccc3ccccc3c2)NC(=O)[C@@H]2C[C@@H](O)CN2C(=O)C2C(=O)C3(C)CCC2C3(C)C)CC1 (stereo partly drawn) [Compound 15]	–
9.15	7.72	CC12CCC(C(C(=O)N3C[C@H](O)C[C@H]3C(=O)N[C@@H](Cc3ccc4ccccc4c3)C(=O)N3CCN(c4ccccc4C#N)CC3)C1=O)C2(C)C (stereo partly drawn) [Compound 16]	–

pIC50 [1, 2]	pIC50 (human NK2 receptor)	SMILES	pIC50 [1]
8.15	7.03	COc1ccccc1N1CCN(C(=O)[C@H](Cc2ccc3ccccc3c2)NC(=O)[C@@H]2C[C@@H](O)CN2C(=O)C2C3CC4C(C3=O)C42)CC1 (stereo partly drawn) [Compound 17]	–
8.10	7.80	COc1ccccc1N1CCN(C(=O)[C@H](Cc2ccc3ccccc3c2)NC(=O)[C@@H]2C[C@@H](O)CN2C(=O)C2C3CCC(C)(C2O)C3(C)C)CC1 (stereo partly drawn) [Compound 18]	–
7.59	6.22	COc1ccccc1N1CCN(C(=O)[C@H](Cc2ccc3ccccc3c2)NC(=O)[C@@H]2C[C@@H](O)CN2C(=O)C2CC3C=CC2(OC)CC3)CC1 (stereo partly drawn) [Compound 19]	–
7.59	6.46	COc1ccccc1N1CCN(C(=O)[C@H](Cc2ccc3ccccc3c2)NC(=O)[C@@H]2C[C@@H](O)CN2S(=O)(=O)CC23CCC(CC2=O)C3(C)C)CC1 (stereo partly drawn) [Compound 20]	–
7.70	6.89	COc1ccccc1N1CCN(C(=O)[C@H](Cc2ccc3ccccc3c2)NC(=O)[C@@H]2C[C@@H](O)CN2C(=O)C2CCCCC2O)CC1 (stereo partly drawn) [Compound 21]	–
7.85	6.85	COc1ccccc1N1CCN(C(=O)[C@H](Cc2ccc3ccccc3c2)NC(=O)[C@@H]2C[C@@H](O)CN2C(=O)C2CC3CCC2(OC)CC3)CC1 (stereo partly drawn) [Compound 23]	–
8.48	5.91	COc1ccccc1N1CCN(C(=O)[C@H](Cc2ccc3ccccc3c2)NC(=O)[C@@H]2C[C@@H](O)CN2C(=O)C23CCC(C)(C(=O)O2)C3(C)C)CC1 (stereo partly drawn) [Compound 24]	–
7.74	6.06	COc1ccccc1N1CCN(C(=O)[C@H](Cc2ccc3ccccc3c2)NC(=O)[C@@H]2C[C@@H](O)CN2C(=O)C2CCCCC2=O)CC1 (stereo partly drawn) [Compound 25]	–
7.55	–	CC12CCC(C(C(=O)N3C[C@H](O)C[C@H]3C(=O)N[C@@H](Cc3c[nH]c4ccccc34)C(=O)N3CCN(c4ccccc4C#N)CC3)C1=O)C2(C)C (stereo partly drawn) [Compound 26]	–
9.30	6.35	CN(Cc1ccccc1)C(=O)[C@H](Cc1ccc2ccccc2c1)NC(=O)[C@@H]1C[C@@H](O)CN1C(=O)C1C(=O)C2(C)CCC1C2(C)C (stereo partly drawn) [Compound 27]	–
7.64	5.82	COc1ccccc1CN1C(=O)C(NC(=O)[C@@H]2C[C@@H](O)CN2C(=O)C2C(=O)C3(C)CCC2C3(C)C)Cc2cc(OC)c(OC)cc21 (stereo partly drawn) [Compound 28]	–
8.92	7.27	CN(Cc1ccccc1Cl)C(=O)[C@H](Cc1c[nH]c2ccccc12)NC(=O)[C@@H]1C[C@@H](O)CN1C(=O)C1C(=O)C2(C)CCC1C2(C)C (stereo partly drawn) [Compound 42]	–
8.92	7.68	CN(Cc1ccccc1Br)C(=O)[C@H](Cc1c[nH]c2ccccc12)NC(=O)[C@@H]1C[C@@H](O)CN1C(=O)C1C(=O)C2(C)CCC1C2(C)C (stereo partly drawn) [Compound 43]	–
8.29	7.41	CCc1ccccc1CN(C)C(=O)[C@H](Cc1c[nH]c2ccccc12)NC(=O)[C@@H]1C[C@@H](O)CN1C(=O)C1C(=O)C2(C)CCC1C2(C)C (stereo partly drawn) [Compound 44]	–
8.31	7.23	Cc1ccccc1CN(C)C(=O)[C@H](Cc1cn(C)c2ccccc12)NC(=O)[C@@H]1C[C@@H](O)CN1C(=O)C1C(=O)C2(C)CCC1C2(C)C (stereo partly drawn) [Compound 45]	–
8.49	7.24	Cc1ccccc1CN(C)C(=O)[C@H](Cc1c[nH]c2ccccc12)NC(=O)[C@@H]1CCCN1C(=O)C1C(=O)C2(C)CCC1C2(C)C (stereo partly drawn) [Compound 47]	–

SMILES	pIC50 [1, 2]	pIC50 (human NK2 receptor)	pIC50 [1]
COc1ccccc1N1CCN(C(=O)[C@H](Cc2ccc3ccccc3c2)NC(=O)[C@@H]2C[C@@H](O)CN2C(=O)C2C(O)C3CCN2CC3)CC1 (stereo partly drawn) [Compound 22]	–	5.89	7.60

— patent US5712273A, “Amino acid derivatives, processes for the manufacture thereof and pharmaceutical compositions (II) containing these compounds” (Boehringer Ingelheim GmbH, priority 1994, dated 1998)
